{"source": "ChEMBL document CHEMBL5647694", "about": "“Novel orally bioavailable EZH1/2 dual inhibitors with greater antitumor efficacy than an EZH2 selective inhibitor” (Cancer Sci, 2017)", "key": {"[1]": {"assay": "Toxicity in Crl:CD Sprague-Dawley rat assessed as inorganic phosphorus level in blood at 100 mg/kg, po administered daily for 14 days (reference value: 6.02+/-0.628 mg/dL)", "format": "organism-based", "details": "in vivo, 336 h, time 14 day"}, "[2]": {"assay": "Toxicity in Crl:CD Sprague-Dawley rat assessed as alanine aminotransferase level in blood at 100 mg/kg, po administered daily for 14 days (reference value: 35.5+/-1.91 U/L)", "format": "organism-based", "details": "in vivo, 336 h, time 14 day"}, "[3]": {"assay": "Toxicity in Crl:CD Sprague-Dawley rat assessed as mean corpuscular volume in blood at 100 mg/kg, po administered daily for 14 days (reference value: 61.5 +/-1.92 fL)", "format": "organism-based", "details": "in vivo, 336 h, time 14 day"}, "[4]": {"assay": "Toxicity in Crl:CD Sprague-Dawley rat assessed as eosinophil count in blood at 100 mg/kg, po administered daily for 14 days (reference value: 0.085+/-0.04 10^3/uL)", "format": "organism-based", "details": "in vivo, 336 h, time 14 day"}, "[5]": {"assay": "Toxicity in Crl:CD Sprague-Dawley rat assessed as albumin level in blood at 100 mg/kg, po administered daily for 14 days (reference value: 3.85+/-0.129 g/dL)", "format": "organism-based", "details": "in vivo, 336 h, time 14 day"}, "[6]": {"assay": "Toxicity in Crl:CD Sprague-Dawley rat assessed as white blood cell count in blood at 100 mg/kg, po administered daily for 14 days (reference value: 9.55+/-1.72 10^3/uL)", "format": "organism-based", "details": "in vivo, 336 h, time 14 day"}, "[7]": {"assay": "Toxicity in Crl:CD Sprague-Dawley rat assessed as alkaline phosphatase level in blood at 100 mg/kg, po administered daily for 14 days (reference value: 1340+/-199 U/L)", "format": "organism-based", "details": "in vivo, 336 h, time 14 day"}, "[8]": {"assay": "Toxicity in Crl:CD Sprague-Dawley rat assessed as decrease of lymphocytes in thymus cortex at 100 mg/kg, po administered daily for 14 days by hematoxylin and eosin staining based analysis", "format": "organism-based", "details": "in vivo, 336 h, time 14 day"}, "[9]": {"assay": "Toxicity in Crl:CD Sprague-Dawley rat assessed as lymphocyte count in blood at 100 mg/kg, po administered daily for 14 days (reference value: 7.37+/-1.6 10^3/uL)", "format": "organism-based", "details": "in vivo, 336 h, time 14 day"}, "[10]": {"assay": "Toxicity in Crl:CD Sprague-Dawley rat assessed as creatine kinase level in blood at 100 mg/kg, po administered daily for 14 days (reference value: 164 +/-5U/L)", "format": "organism-based", "details": "in vivo, 336 h, time 14 day"}, "KARPAS-422": {"test_system": "KARPAS-422", "assay": "Antitumor activity against human KARPAS-422 cells xenografted in CB17/Icr-Prkdcscid/CrlCrlj mouse assessed as inhibition of tumor growth at 50 mg/kg, po BID for 14 days and measured after cessation of drug treatment", "format": "functional, organism-based", "details": "time 14.0 day"}, "[11]": {"assay": "Toxicity in Crl:CD Sprague-Dawley rat assessed as platelet count in blood at 100 mg/kg, po administered daily for 14 days (reference value: 1160+/-65.1 10^3/uL)", "format": "organism-based", "details": "in vivo, 336 h, time 14 day"}, "[12]": {"target": "Serine/threonine-protein kinase Sgk2 (Homo sapiens) (UniProt Q9HBY8)", "sequence (Q9HBY8 whole entry, the tested form may be a part)": "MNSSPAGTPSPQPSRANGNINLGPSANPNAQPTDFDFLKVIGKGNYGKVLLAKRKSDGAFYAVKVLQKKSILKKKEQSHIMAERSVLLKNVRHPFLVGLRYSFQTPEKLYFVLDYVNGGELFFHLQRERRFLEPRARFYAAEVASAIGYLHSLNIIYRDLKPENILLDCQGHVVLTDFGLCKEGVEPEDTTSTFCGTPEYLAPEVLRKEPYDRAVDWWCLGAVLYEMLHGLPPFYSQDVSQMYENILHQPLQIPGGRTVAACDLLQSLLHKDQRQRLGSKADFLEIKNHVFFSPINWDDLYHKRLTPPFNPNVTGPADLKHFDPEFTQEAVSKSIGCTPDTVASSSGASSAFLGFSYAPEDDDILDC", "assay": "Inhibition of N-terminal GST-fused full length human SGK2 (1 to 367 residues) expressed in baculovirus expression system using SGKtide as substrate at 1 uM in presence of ATP by Mobility shift assay"}, "SUD4": {"test_system": "SUD4", "assay": "Antitumor activity against human SU-DHL-4 cells assessed as cell growth inhibition treated for 10 to 15 days", "format": "functional", "details": "time 10-15 day"}, "[13]": {"test_system": "KATO III stomach cancer cell line", "assay": "Antitumor activity against human KATO III stomach cancer cell line assessed as cell growth inhibition treated for 10 to 15 days", "format": "functional", "details": "time 10-15 day"}, "MV4-11": {"test_system": "MV4-11", "assay": "Antitumor activity against human MV4-11 cells assessed as cell growth inhibition treated for 10 to 15 days", "format": "functional", "details": "time 10-15 day"}, "ACHN": {"test_system": "ACHN", "assay": "Antitumor activity against human ACHN cells assessed as cell growth inhibition treated for 10 to 15 days", "format": "functional", "details": "time 10-15 day"}, "LNCaP-Clone-FGC": {"test_system": "LNCaP-Clone-FGC", "assay": "Antitumor activity against human LNCaP clone FGC cells assessed as cell growth inhibition treated for 10 to 15 days", "format": "functional", "details": "time 10-15 day"}, "[14]": {"target": "Histone-lysine N-methyltransferase 2B (Homo sapiens, UniProt Q9UMN6)", "sequence (Q9UMN6 whole entry)": "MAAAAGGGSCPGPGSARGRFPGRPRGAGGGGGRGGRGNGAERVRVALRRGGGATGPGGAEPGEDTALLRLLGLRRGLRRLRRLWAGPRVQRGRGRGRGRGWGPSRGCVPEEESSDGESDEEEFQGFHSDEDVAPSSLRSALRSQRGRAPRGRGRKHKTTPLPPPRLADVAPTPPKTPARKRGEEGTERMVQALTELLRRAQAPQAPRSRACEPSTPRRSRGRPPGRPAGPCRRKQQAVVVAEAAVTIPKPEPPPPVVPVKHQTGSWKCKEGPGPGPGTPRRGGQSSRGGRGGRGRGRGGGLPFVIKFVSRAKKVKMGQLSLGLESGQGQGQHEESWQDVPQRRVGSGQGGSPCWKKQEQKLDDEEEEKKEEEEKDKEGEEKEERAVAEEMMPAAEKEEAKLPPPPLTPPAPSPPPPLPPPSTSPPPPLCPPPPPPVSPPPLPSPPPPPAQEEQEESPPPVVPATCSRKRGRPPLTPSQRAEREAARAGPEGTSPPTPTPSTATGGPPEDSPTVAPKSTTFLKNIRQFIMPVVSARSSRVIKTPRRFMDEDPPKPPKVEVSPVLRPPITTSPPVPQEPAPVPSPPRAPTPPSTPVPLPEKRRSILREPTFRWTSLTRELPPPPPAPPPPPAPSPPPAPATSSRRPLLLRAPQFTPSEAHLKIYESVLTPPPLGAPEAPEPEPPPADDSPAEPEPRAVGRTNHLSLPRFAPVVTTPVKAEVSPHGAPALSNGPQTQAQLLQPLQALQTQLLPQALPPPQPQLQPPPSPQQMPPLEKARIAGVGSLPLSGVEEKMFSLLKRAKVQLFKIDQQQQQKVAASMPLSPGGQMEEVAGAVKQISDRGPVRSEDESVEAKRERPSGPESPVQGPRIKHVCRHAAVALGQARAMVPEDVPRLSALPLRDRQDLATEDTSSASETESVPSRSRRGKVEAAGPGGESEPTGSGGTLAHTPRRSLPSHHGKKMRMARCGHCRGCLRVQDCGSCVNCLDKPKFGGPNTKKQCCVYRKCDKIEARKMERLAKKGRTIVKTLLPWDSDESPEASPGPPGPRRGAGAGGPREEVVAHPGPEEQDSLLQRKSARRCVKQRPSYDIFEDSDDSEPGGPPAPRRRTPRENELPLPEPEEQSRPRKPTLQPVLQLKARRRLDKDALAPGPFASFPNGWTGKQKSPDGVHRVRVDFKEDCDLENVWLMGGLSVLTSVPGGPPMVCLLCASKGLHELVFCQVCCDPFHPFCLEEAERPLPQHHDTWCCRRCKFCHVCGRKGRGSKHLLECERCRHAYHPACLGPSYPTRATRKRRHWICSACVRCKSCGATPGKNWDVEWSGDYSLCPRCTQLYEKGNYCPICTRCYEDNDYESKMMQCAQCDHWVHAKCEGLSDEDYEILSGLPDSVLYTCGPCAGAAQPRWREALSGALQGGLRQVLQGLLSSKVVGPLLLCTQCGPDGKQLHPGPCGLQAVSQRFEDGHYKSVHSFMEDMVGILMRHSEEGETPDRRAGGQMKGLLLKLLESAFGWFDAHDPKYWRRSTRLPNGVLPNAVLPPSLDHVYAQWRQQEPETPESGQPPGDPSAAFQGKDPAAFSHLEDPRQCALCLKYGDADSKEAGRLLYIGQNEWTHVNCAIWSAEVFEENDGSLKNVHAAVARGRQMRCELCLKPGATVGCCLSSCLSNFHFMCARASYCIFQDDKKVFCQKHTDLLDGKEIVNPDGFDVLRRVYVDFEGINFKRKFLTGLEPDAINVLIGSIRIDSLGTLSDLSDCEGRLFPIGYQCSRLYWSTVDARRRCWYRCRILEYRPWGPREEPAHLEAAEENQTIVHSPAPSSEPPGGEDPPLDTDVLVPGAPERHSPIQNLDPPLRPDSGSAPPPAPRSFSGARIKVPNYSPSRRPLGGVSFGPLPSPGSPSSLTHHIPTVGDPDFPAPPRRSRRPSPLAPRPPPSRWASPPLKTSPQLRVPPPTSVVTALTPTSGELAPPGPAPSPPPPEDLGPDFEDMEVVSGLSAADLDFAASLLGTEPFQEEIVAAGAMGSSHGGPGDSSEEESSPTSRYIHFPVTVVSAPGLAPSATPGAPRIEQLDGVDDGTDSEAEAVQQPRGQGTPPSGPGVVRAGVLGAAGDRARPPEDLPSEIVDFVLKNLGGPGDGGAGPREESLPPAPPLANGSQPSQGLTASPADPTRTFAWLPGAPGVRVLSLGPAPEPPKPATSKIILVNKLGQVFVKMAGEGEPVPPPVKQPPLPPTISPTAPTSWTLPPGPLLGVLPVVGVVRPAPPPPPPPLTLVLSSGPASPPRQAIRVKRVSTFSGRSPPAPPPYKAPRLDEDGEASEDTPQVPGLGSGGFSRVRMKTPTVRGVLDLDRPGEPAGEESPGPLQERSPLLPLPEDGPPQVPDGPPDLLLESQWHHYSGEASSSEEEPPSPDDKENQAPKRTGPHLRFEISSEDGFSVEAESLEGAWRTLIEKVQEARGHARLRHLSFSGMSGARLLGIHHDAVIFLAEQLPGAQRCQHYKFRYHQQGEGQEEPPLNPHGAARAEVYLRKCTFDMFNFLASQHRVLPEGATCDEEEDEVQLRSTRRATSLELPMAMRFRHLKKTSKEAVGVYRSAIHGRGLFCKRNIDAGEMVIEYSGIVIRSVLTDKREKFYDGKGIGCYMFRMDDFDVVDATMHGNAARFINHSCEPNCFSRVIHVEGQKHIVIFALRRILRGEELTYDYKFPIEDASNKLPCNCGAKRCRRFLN", "assay": "Inhibition of human MLL4 using Core Histone and [3H]SAM as substrate incubated for 30 mins to 1 hr by HotSpot kinase assay"}, "MOLT-4": {"test_system": "MOLT-4", "assay": "Antitumor activity against human MOLT-4 cells assessed as cell growth inhibition treated for 10 to 15 days", "format": "functional", "details": "time 10-15 day"}, "RL": {"test_system": "RL", "assay": "Antitumor activity against human RL cells assessed as cell growth inhibition treated for 10 to 15 days", "format": "functional", "details": "time 10-15 day"}, "DU-145": {"test_system": "DU-145", "assay": "Antitumor activity against human DU-145 cells assessed as cell growth inhibition treated for 10 to 15 days", "format": "functional", "details": "time 10-15 day"}, "SNU1": {"test_system": "SNU1", "assay": "Antitumor activity against human SNU1 cells assessed as cell growth inhibition treated for 10 to 15 days", "format": "functional", "details": "time 10-15 day"}, "NCI-H1092": {"test_system": "NCI-H1092", "assay": "Antitumor activity against human NCI-H1092 cells assessed as cell growth inhibition treated for 10 to 15 days", "format": "functional", "details": "time 10-15 day"}, "HCC1419": {"test_system": "HCC1419", "assay": "Antitumor activity against human HCC1419 cells assessed as cell growth inhibition treated for 10 to 15 days", "format": "functional", "details": "time 10-15 day"}, "[15]": {"target": "Angiopoietin-1 receptor (Homo sapiens) (UniProt Q02763)", "sequence (Q02763 whole entry, the tested form may be a part)": "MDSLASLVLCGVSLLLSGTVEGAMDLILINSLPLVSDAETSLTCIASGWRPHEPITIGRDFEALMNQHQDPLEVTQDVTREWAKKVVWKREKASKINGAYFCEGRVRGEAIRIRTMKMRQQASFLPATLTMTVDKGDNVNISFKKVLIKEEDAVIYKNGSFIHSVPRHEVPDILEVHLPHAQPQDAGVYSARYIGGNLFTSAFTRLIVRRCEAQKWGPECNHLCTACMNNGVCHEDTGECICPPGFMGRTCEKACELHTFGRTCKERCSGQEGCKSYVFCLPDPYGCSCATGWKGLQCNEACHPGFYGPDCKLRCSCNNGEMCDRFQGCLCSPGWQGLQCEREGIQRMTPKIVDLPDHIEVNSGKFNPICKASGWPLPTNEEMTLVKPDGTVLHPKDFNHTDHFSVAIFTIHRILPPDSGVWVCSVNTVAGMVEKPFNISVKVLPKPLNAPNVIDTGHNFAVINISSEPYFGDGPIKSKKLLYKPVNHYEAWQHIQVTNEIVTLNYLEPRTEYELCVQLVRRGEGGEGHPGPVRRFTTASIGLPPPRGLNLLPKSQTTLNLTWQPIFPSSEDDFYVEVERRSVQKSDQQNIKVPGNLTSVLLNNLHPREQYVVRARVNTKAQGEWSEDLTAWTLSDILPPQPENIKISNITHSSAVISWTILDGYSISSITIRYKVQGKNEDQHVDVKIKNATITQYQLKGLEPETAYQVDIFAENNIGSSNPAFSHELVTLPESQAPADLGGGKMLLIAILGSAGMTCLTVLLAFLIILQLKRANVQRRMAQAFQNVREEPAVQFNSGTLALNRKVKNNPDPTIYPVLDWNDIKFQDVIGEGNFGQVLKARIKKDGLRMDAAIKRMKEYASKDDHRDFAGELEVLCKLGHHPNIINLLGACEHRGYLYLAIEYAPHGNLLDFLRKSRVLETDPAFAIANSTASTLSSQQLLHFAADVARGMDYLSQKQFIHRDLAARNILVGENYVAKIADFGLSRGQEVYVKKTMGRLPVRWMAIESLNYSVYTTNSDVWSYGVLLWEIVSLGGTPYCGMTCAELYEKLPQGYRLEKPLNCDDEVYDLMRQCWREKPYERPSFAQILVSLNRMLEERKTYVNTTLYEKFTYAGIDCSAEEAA", "assay": "Inhibition of N-terminal GST-tagged human TIE2 cytoplasmic domain (771 to 1124 residues) expressed in baculovirus-infected Sf21 cells using Blk/Lyntide as substrate at 1 uM in presence of ATP by Mobility shift assay"}, "HGC-27": {"test_system": "HGC-27", "assay": "Antitumor activity against human HGC-27 cells assessed as cell growth inhibition treated for 10 to 15 days", "format": "functional", "details": "time 10-15 day"}, "BT-20": {"test_system": "BT-20", "assay": "Antitumor activity against human BT-20 cells assessed as cell growth inhibition treated for 10 to 15 days", "format": "functional", "details": "time 10-15 day"}, "[16]": {"assay": "Antitumor activity against human MINO cells assessed as cell growth inhibition treated for 10 to 15 days", "format": "functional", "details": "time 10-15 day"}, "T47D": {"test_system": "T47D", "assay": "Antitumor activity against human T47D cells assessed as cell growth inhibition treated for 10 to 15 days", "format": "functional", "details": "time 10-15 day"}, "SNU-16": {"test_system": "SNU-16", "assay": "Antitumor activity against human SNU-16 cells assessed as cell growth inhibition treated for 10 to 15 days", "format": "functional", "details": "time 10-15 day"}, "AGS": {"test_system": "AGS", "assay": "Antitumor activity against human AGS cells assessed as cell growth inhibition treated for 10 to 15 days", "format": "functional", "details": "time 10-15 day"}, "MDA-MB-453": {"test_system": "MDA-MB-453", "assay": "Antitumor activity against human MDA-MB-453 cells assessed as cell growth inhibition treated for 10 to 15 days", "format": "functional", "details": "time 10-15 day"}, "CW-2": {"test_system": "CW-2", "assay": "Antitumor activity against human CW-2 cells assessed as cell growth inhibition treated for 10 to 15 days", "format": "functional", "details": "time 10-15 day"}, "LOUCY": {"test_system": "LOUCY", "assay": "Antitumor activity against human LOUCY cells assessed as cell growth inhibition treated for 10 to 15 days", "format": "functional", "details": "time 10-15 day"}, "[17]": {"assay": "Antitumor activity against human HCC202 cells assessed as cell growth inhibition treated for 10 to 15 days", "format": "functional", "details": "time 10-15 day"}, "[18]": {"target": "Histone-lysine N-methyltransferase NSD2 (Homo sapiens, UniProt O96028)", "assay": "Inhibition of human NSD2 using Nucleosomes and [3H]SAM as substrate incubated for 30 mins to 1 hr by HotSpot kinase assay"}, "MDA-MB-468": {"test_system": "MDA-MB-468", "assay": "Antitumor activity against human MDA-MB-468 cells assessed as cell growth inhibition treated for 10 to 15 days", "format": "functional", "details": "time 10-15 day"}, "[19]": {"target": "Protein arginine N-methyltransferase 8 (Homo sapiens, UniProt Q9NR22)", "sequence (Q9NR22 whole entry)": "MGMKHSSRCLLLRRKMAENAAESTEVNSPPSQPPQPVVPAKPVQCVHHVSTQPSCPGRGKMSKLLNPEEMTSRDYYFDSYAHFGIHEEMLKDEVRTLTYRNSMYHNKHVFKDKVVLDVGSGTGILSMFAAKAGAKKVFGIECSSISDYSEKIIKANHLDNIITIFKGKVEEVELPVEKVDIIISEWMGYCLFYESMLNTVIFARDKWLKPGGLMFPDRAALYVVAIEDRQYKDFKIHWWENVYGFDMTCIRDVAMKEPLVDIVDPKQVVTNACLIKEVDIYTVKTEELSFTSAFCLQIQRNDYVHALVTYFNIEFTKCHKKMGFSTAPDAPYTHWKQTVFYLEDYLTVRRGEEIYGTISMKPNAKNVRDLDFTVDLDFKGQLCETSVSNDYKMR", "assay": "Inhibition of human PRMT8 using Histone H4 and [3H]SAM as substrate incubated for 30 mins to 1 hr by HotSpot kinase assay"}, "[20]": {"assay": "Antitumor activity against human Kasumi-3 cells assessed as cell growth inhibition treated for 10 to 15 days", "format": "functional", "details": "time 10-15 day"}}, "note": "The source made the active and inactive calls. No cut-off for these calls is given here.", "data": [{"smiles": "Cc1cc(C)c(CNC(=O)c2cc(Br)c3c(c2C)O[C@@](C)([C@H]2CC[C@H](N(C)C)CC2)O3)c(=O)[nH]1", "values": [{"measurement": "Activity", "setting": "[1]", "result": 5.97, "unit": "mg/dL"}, {"measurement": "Activity", "setting": "[2]", "result": 27.5, "unit": "U/L"}, {"measurement": "Activity", "setting": "[3]", "result": 60.9, "unit": "fL"}, {"measurement": "Activity", "setting": "[4]", "result": "0.168 10^3 /uL"}, {"measurement": "Activity", "setting": "[5]", "result": 3.75, "unit": "g/dL"}, {"measurement": "Activity", "setting": "[6]", "result": "4.56 10^3 /uL"}, {"measurement": "Activity", "setting": "[7]", "result": 1120, "unit": "U/L"}, {"measurement": "Activity", "setting": "[8]", "result": "Toxic"}, {"measurement": "Activity", "setting": "[9]", "result": "3.67 10^3 /uL"}, {"measurement": "Activity", "setting": "[10]", "result": 186, "unit": "U/L"}, {"measurement": "Activity", "setting": "KARPAS-422", "result": "Active"}, {"measurement": "Activity", "setting": "[11]", "result": "1120 10^3 /uL"}]}, {"smiles": "Cc1cc(C)c(CNC(=O)c2cc(Cl)c3c(c2C)O[C@@](C)([C@H]2CC[C@H](N(C)C)CC2)O3)c(=O)[nH]1", "note": "[VALEMETOSTAT]", "values": [{"measurement": "inhibition", "setting": "[12]", "result": -9, "unit": "%"}, {"measurement": "GI50", "setting": "SUD4", "result": 55.5, "unit": "nM"}, {"measurement": "GI50", "setting": "[13]", "result": 18.2, "unit": "nM"}, {"measurement": "GI50", "setting": "MV4-11", "result": 3.19, "unit": "nM"}, {"measurement": "GI50", "setting": "ACHN", "result": "> 1000", "unit": "nM"}, {"measurement": "GI50", "setting": "LNCaP-Clone-FGC", "result": 5.53, "unit": "nM"}, {"measurement": "IC50", "setting": "[14]", "result": 100000, "unit": "nM"}, {"measurement": "GI50", "setting": "MOLT-4", "result": 120, "unit": "nM"}, {"measurement": "GI50", "setting": "RL", "result": "> 1000", "unit": "nM"}, {"measurement": "GI50", "setting": "DU-145", "result": "> 1000", "unit": "nM"}, {"measurement": "GI50", "setting": "SNU1", "result": "> 1000", "unit": "nM"}, {"measurement": "GI50", "setting": "NCI-H1092", "result": "> 1000", "unit": "nM"}, {"measurement": "GI50", "setting": "HCC1419", "result": "> 1000", "unit": "nM"}, {"measurement": "inhibition", "setting": "[15]", "result": -7.6, "unit": "%"}, {"measurement": "GI50", "setting": "HGC-27", "result": "> 1000", "unit": "nM"}, {"measurement": "GI50", "setting": "BT-20", "result": "> 1000", "unit": "nM"}, {"measurement": "GI50", "setting": "[16]", "result": 20.7, "unit": "nM"}, {"measurement": "GI50", "setting": "T47D", "result": "> 1000", "unit": "nM"}, {"measurement": "GI50", "setting": "SNU-16", "result": "> 1000", "unit": "nM"}, {"measurement": "GI50", "setting": "AGS", "result": "> 1000", "unit": "nM"}, {"measurement": "GI50", "setting": "MDA-MB-453", "result": 124, "unit": "nM"}, {"measurement": "GI50", "setting": "CW-2", "result": "> 1000", "unit": "nM"}, {"measurement": "GI50", "setting": "LOUCY", "result": "> 1000", "unit": "nM"}, {"measurement": "GI50", "setting": "[17]", "result": "> 1000", "unit": "nM"}, {"measurement": "IC50", "setting": "[18]", "result": 100000, "unit": "nM"}, {"measurement": "GI50", "setting": "MDA-MB-468", "result": "> 1000", "unit": "nM"}, {"measurement": "IC50", "setting": "[19]", "result": 100000, "unit": "nM"}, {"measurement": "GI50", "setting": "[20]", "result": "> 1000", "unit": "nM"}]}]}
